From patent US8501813B2, “γ-secretase inhibitor” (Kabushiki Kaisha Yakult Honsha, priority 2007, dated 2013)

Experiments:
γ-secretase [1] = biological target: T1, γ-secretase (Homo sapiens, UniProt P49768); assay: Substrate specificity: β-Alcα secretion by HEK293 cells transfected with FLAG Alcα C150, anti-FLAG immunoprecipitation/western blot; type: cell-based; settings: 0.2 μmol/L; for activity at 0.2 µM: HEK293, 24 h, FLAG Alcα C150, negative control = 100%, read-out: (ii) β-Alcα secretion rate of HEK293 cells
Procedure: (§1) Of families constituting human Alcadein (hereinafter, referred to as Alc) known as a substrate for γ-secretase to colocalize with APP in brain neurons, an artificial Alcα fragment (hereinafter, referred to as Alcα C150) whose first extracellular cleavage site and γ-secretase cleavage site were determined was used to study the substrate specificity of the γ-secretase inhibitor of the present invention. β-Alcα produced from a first cleavage construct of Alcα cannot be quantified by sELISA used in Aβ measurement. Therefore, proteins with an attached FLAG tag at the N termini of first cleavage constructs of Alcα and of C99 were expressed by cells. FLAG-Aβ-like peptides secreted into a medium were collected by immunoprecipitation using anti-FLAG antibodies and detected by western blotting using the antibodies. A specific method thereof is shown below.
(§2) HEK293 cells (ATCC) (1×10^7 cells/10 cm dish) cultured in 6 ml of 10% FCS-containing DMEM (Wako Pure Chemical Industries, Ltd.) were transfected with FLAG APP C99 pcDNA3.1 (the nucleotide sequence of its coding region is shown in SEQ ID NO: 2) (J. Biol. Chem., 2003, 278, 49448-49458 (which was prepared from pcDNA3-APPC99)) or with FLAG Alcα C150 pcDNA3.1 (the nucleotide sequence of its coding region is shown in SEQ ID NO: 3) (J. Biol. Chem., 2004, 279, 24343-24354 (which was the same as pcDNA3AlcαΔE)) using Lipofectamine 2000 (Invitrogen Corp.) according to the protocol included in the reagent. Each inhibitor and a positive control (γ-Secretase Inhibitor IX (DAPT)) (Calbiochem Contact Information) were separately added at a concentration of 0.2 or 2 μmol/L. The same dose of DMSO (Wako Pure Chemical Industries, Ltd.) thereas was added as a negative control. 24 hours later, the culture supernatants were collected, and samples were preliminarily purified using beads (100 μL of 50% (v/v) Protein-G Sepharose (GE Healthcare)). Then, 15 μL of 50% (v/v) anti-FLAG antibody M2 beads (Sigma-Aldrich Corp.) were added thereto, and the samples were incubated at 4° C. for 1 hour. The beads were collected by centrifugation and washed three times with a buffer (10 mM Tris-HCl [pH 8.0], 140 mM NaCl, 0.1% n-octyl glucoside, 0.025% sodium azide), and Aβ and β-Alcα in the medium were collected. The proteins were subjected to SDS-PAGE using a 15% Tris-Tricine gel (Anal Biochem., 1987, 166 (2), 368-379) and then transferred to a membrane. The membrane was boiled for 5 minutes in PBS. Then, anti-FLAG M2 antibodies (5 μg/ml) (Sigma-Aldrich Corp.) were added thereto, and the membrane was incubated, followed by detection using a western blotting detection reagent ECL (GE Healthcare). This signal was quantified using Versa-doc system (Bio-Rad Laboratories, Inc.) to calculate protein secretion rates (the protein secretion rate of the negative control is defined as 100%).

γ-secretase [2] = biological target: T1, γ-secretase; assay: Substrate specificity: FLAG-Aβ secretion by HEK293 cells transfected with FLAG APP C99, anti-FLAG immunoprecipitation/western blot; type: cell-based; settings: 0.2 μmol/L; for activity at 0.2 µM: HEK293, 24 h, FLAG APP C99, negative control = 100%, read-out: (i) Aβ secretion rate of HEK293 cells
Procedure: as §1, §2

C99 cells = assay: Cytotoxicity on C99 cells, cell viability by Cell Counting Kit-8; type: cell-based, human; settings: 24 h
Procedure: The cytotoxicity of four test substances (TLVM-5, TLVM-7, TLVM-8, and TLVM-9) on the C99 cells was measured using a method shown below.
In the present test, a medium used for the C99 cells was 500 mL of a Dulbecco's Modified Eagle's Medium (DMEM, Sigma-Aldrich Corp.) supplemented with 55 ml of fetal bovine serum (Biosource), 5.5 ml of MEM non-essential amino acids (Gibco), and 5.5 ml of penicillin/streptomycin (Gibco).
The C99 cells were suspended at a concentration of 0.75×10^5 cells/ml in the medium. The suspension was added at a concentration of 100 μL (0.75×10^4 cells)/well to a 96-well collagen plate (Akita Sumitomo Bakelite Co., Ltd.) and cultured for 2 days. Then, the medium (corresponding to 50 μL/well) in the wells was removed, and a fresh medium was added thereto at a concentration of 30 μL/well. […] Then, the cell viability was measured using Cell Counting Kit-8 (Dojindo Laboratories).

| Compound | γ cleavage of the Alcα-C150, in words (γ-secretase [1]) | activity at 0.2 µM (γ-secretase [1]) [%] | (i)/(ii) ratio, Aβ / β-Alcα secretion rates (γ-secretase [2]) | cleavage of APP-C99, in words (γ-secretase [2]) | activity at 0.2 µM (γ-secretase [2]) [%] | Cell viability of C99 cells (C99 cells; exposure 0.3 μmol/L) [%] | Cell viability of C99 cells (C99 cells; exposure 1 μmol/L) [%] | Cell viability of C99 cells (C99 cells; exposure 3 μmol/L) [%] | Cell viability of C99 cells (C99 cells; exposure 10 μmol/L) [%] | Cell viability of C99 cells (C99 cells; exposure 30 μmol/L) [%] | Cell viability of C99 cells (C99 cells; exposure 100 μmol/L) [%] |
| --- | --- | --- | --- | --- | --- | --- | --- | --- | --- | --- | --- |
| CSCCC(NC(=O)C(NC(=O)C(CC(C)C)CC(O)C(NC(=O)OC(C)(C)C)C(C)O)C(C)C)C(=O)NCc1ccccc1 [TLVM-5, [5S-(tert-butoxycarbonylamino)-4R,6R-dihydroxy-2R-(2-methylpropyl)heptanoyl]-L-valyl-L-methionine benzylamide] | did not inhibit | 140 | 0.29 | specifically inhibited | 41 | 102 | 109 | 112 | 104 | 82 | 46 |
| CCCCNC(=O)C(CCSC)NC(=O)C(NC(=O)C(CC(C)C)CC(O)C(NC(=O)OC(C)(C)C)C(C)O)C(C)C [TLVM-7, [5S-(tert-butoxycarbonylamino)-4R,6R-dihydroxy-2R-(2-methylpropyl)heptanoyl]-L-valyl-L-methionine n-butylamide] | did not inhibit | 120 | 0.30 | specifically inhibited | 36 | 92 | 105 | 96 | 102 | 91 | 96 |
| CSCCC(NC(=O)C(NC(=O)C(CC(C)C)CC(O)C(NC(=O)OC(C)(C)C)C(C)O)C(C)C)C(=O)NCc1ccc(F)cc1 [TLVM-9, [5S-(tert-butoxycarbonylamino)-4R,6R-dihydroxy-2R-(2-methylpropyl)heptanoyl]-L-valyl-L-methionine 4-fluorobenzylamide] | did not inhibit | 158 | 0.27 | specifically inhibited | 43 | 104 | 106 | 106 | 105 | 93 | 57 |
| CSCCC(NC(=O)C(NC(=O)C(CC(C)C)CC(O)C(NC(=O)OC(C)(C)C)C(C)O)C(C)C)C(=O)NC(C)c1ccccc1 [TLVM-8, [5S-(tert-butoxycarbonylamino)-4R,6R-dihydroxy-2R-(2-methylpropyl)heptanoyl]-L-valyl-L-methionine (S)-α-methylbenzylamide] | did not inhibit | 118 | 0.27 | specifically inhibited | 32 | 101 | 102 | 101 | 98 | 91 | 8 |
